{
  "source": "patent US6664279B2",
  "about": "“Remedies or preventives for liver diseases containing diaminotrifluoromethylpyridine derivatives” (Ishihara Sangyo Kaisha, Ltd., priority 2000, dated 2003)",
  "key": {"[1]": {"system": "acetaminophen (APAP) induced mouse hepatopathy model", "assay": "Therapeutic effect on mouse acetaminophen hepatopathy model", "type": "in vivo", "text": "Therapeutic Effect on Mouse Acetaminophen Hepatopathy Model\nThe therapeutic effect of N-(2-ethylsulfonylamino-5-trifluoromethyl-3-pyridyl)cyclohexanecarboxamide sodium salt hydrate (hereinafter referred to as compound 1) on acetaminophen (APAP) induced mouse hepatopathy model was examined.\nTo Crj: CD-1(ICR) male mice (6 weeks old) (Charles River Japan Inc.), APAP (Lot. No. 107H0332, manufactured by Sigma) dissolved with physiological saline (Lot No. 80909D manufactured by Fuso Pharmaceutical Industries, Ltd.) was intraperitoneally administered in an amount of the active ingredient of 300 mg/kg to induce hepatopathy. 3 Hours after the administration of APAP, the compound 1 dissolved in physiological saline was singly administered subcutaneously on the back in an amount of the active ingredient of 10 mg/kg. To non-treated group mice, physiological saline was similarly administered. 6 Hours after the administration of APAP, the blood was collected, and glutamic-oxaloacetic transaminase (GOT) and glutamic-pyruvic transaminase (GPT) values in the blood serum were measured.\nIn the present test, mice were kept on a fast from 20 hours before the administration of APAP until the completion of the test."}, "[2]": {"system": "rat liver ischemia reperfusion hepatopathy model", "assay": "Therapeutic effect on rat liver ischemia reperfusion hepatopathy model", "type": "in vivo", "text": "Therapeutic Effect on Rat Liver Ischemia Reperfusion Hepatopathy Model\nThe therapeutic effect of the compound 1 on rat hepatopathy model induced by partially subjecting the liver to ischemia reperfusion was examined.\n(1) The compound 1 was used as a drug formulation. The formulation composition (content per one vial) was as follows.\n(2) Crj:SD (IGS) male rats (7 weeks old) (Charles River Japan, Inc.) were anesthetized with ether, and while maintaining them anesthetized with gas-oxygen fluothane, the above drug formulation of the compound 1 diluted with 5% glucose (Lot. 9I78N, manufactured by Otsuka Pharmaceutical Factory, Inc.) so that the dose would be 10 mg/kg/hr as calculated as anhydride of the compound 1, was subcutaneously administered singly. Then, an osmotic pump (alzet osmotic pump 2001D, ALZA CORPORATION, U.S.A.) in which the above drug formulation of the compound 1 diluted with 5% glucose (Lot. 9I78N, manufactured by Otsuka Pharmaceutical Factory, Inc.) so that the dose would be 0.3 mg/kg/hr as calculated as anhydride of the compound 1 was put, was embedded in the dorsal cervical subcutaneous. To non-treated group rats, 5% glucose alone was administered similarly. […] The abdomen was closed, the rats were awaked, and after 90 minutes, the abdomen was opened up again under the above-described anesthesia, the clamp was removed and the rats were subjected to reperfusion. To pseudo-induced group rats, operation except for the ischemia reperfusion treatment was carried out. The abdomen was closed and the rats were awaked, and 6 hours after the reperfusion, aspartate aminotransferase (AST) and alanine aminotransferase (ALT), lactate dehydrogenase (LDH) and total bilirubin values in the blood serum were measured."}, "[3]": {"settings": "Crj:CD-1(ICR) male mice, APAP 300 mg/kg i.p., 10 mg/kg s.c. single dose 3 hours after APAP, blood 6 hours after APAP, N = 5"}, "[4]": {"settings": "Crj:SD (IGS) male rats, 90 minutes ischemia of about 70% of liver, 10 mg/kg/hr s.c. singly then 0.3 mg/kg/hr by osmotic pump, 6 hours after reperfusion, N = 10"}},
  "data": [
    {"smiles": "CCS(=O)(=O)Nc1ncc(C(F)(F)F)cc1NC(=O)C1CCCCC1.O.[Na]", "note": "[compound 1, N-(2-ethylsulfonylamino-5-trifluoromethyl-3-pyridyl)cyclohexanecarboxamide sodium salt hydrate]", "values": [
      {"measurement": "GOT in blood serum (mean ± standard deviation)", "setting": "[1]; [3]", "value": "530 ± 212", "unit": "IU/L"},
      {"measurement": "GPT in blood serum (mean ± standard deviation)", "setting": "[1]; [3]", "value": "807 ± 603", "unit": "IU/L"},
      {"measurement": "Effect on hepatopathy (increases in biochemical examination values), in words", "setting": "[1]; acetaminophen induced mouse hepatopathy model, 10 mg/kg s.c., versus non-treated group", "value": "hepatopathy was alleviated"},
      {"measurement": "ALT (GPT) in blood serum (mean)", "setting": "[2]; [4]", "value": 5436, "unit": "IU/L"},
      {"measurement": "AST (GOT) in blood serum (mean)", "setting": "[2]; [4]", "value": 8669, "unit": "IU/L"},
      {"measurement": "LDH in blood serum (mean)", "setting": "[2]; [4]", "value": 29601, "unit": "IU/L"},
      {"measurement": "Total bilirubin in blood serum (mean)", "setting": "[2]; [4]", "value": 0.299, "unit": "mg/dL"},
      {"measurement": "Effect on hepatopathy (increases in biochemical examination values), in words", "setting": "[2]; rat ischemia reperfusion hepatopathy model, versus non-treated group", "value": "alleviated"}
    ]}
  ]
}
